According to BindingDB's records for doi:10.1016/s0960-894x(03)00588-2 (University of California Irvine, 2003):
pIC50: −log10 of the molar value.

Test: Inhibitory concentration against protein phosphatase 1 (PP1) using pNPP assay

**Q.** With `CO[C@@H](Cc1ccccc1)[C@@H](C)/C=C(C)/C=C/[C@H](NC(C)=O)[C@H](C)C(=O)N1C[C@H](O[Si](C(C)C)(C(C)C)C(C)C)C[C@@H]1C(=O)O` [(2R,4R)-1-((4E,6E)-(2S,3S,8S,9S)-3-Acetylamino-9-methoxy-2,6,8-trimethyl-10-phenyl-deca-4,6-dienoyl)-4-triisopropylsilanyloxy-pyrrolidine-2-carboxylic acid] as the molecule, how does the pIC50 read?
**A.** The pIC50 was under 4.00.

**Q.** With `CO[C@@H](Cc1ccccc1)[C@@H](C)/C=C(C)/C=C/[C@H](NC(C)=O)[C@H](C)C(=O)N1C[C@H](C(=O)O)C[C@@H]1C(=O)O` [(2R,4R)-1-((4E,6E)-(2S,3S,8S,9S)-3-Acetylamino-9-methoxy-2,6,8-trimethyl-10-phenyl-deca-4,6-dienoyl)-pyrrolidine-2,4-dicarboxylic acid] as the molecule, how does the pIC50 read?
**A.** The pIC50 was under 4.00.

**Q.** With `CO[C@@H](Cc1ccccc1)[C@@H](C)/C=C(C)/C=C/[C@H](NC(C)=O)[C@H](C)C(=O)N1C[C@@H](C(=O)O)C[C@@H]1C(=O)O` [(2R,4S)-1-((4E,6E)-(2S,3S,8S,9S)-3-Acetylamino-9-methoxy-2,6,8-trimethyl-10-phenyl-deca-4,6-dienoyl)-pyrrolidine-2,4-dicarboxylic acid] as the molecule, how does the pIC50 read?
**A.** The pIC50 was under 4.00.

**Q.** With `CO[C@@H](Cc1ccccc1)[C@@H](C)/C=C(C)/C=C/[C@H](NC(C)=O)[C@H](C)C(=O)N1[C@@H](C(=O)O)CC[C@H]1C(=O)O` [(2R,5S)-1-((4E,6E)-(2S,3S,8S,9S)-3-Acetylamino-9-methoxy-2,6,8-trimethyl-10-phenyl-deca-4,6-dienoyl)-pyrrolidine-2,5-dicarboxylic acid] as the molecule, how does the pIC50 read?
**A.** The pIC50 was under 4.30.

**Q.** With `CO[C@@H](Cc1ccccc1)[C@@H](C)/C=C(C)/C=C/[C@H](NC(C)=O)[C@H](C)C(=O)N1C[C@H](C(=O)O)C[C@H]1C(=O)O` [(2S,4R)-1-((4E,6E)-(2S,3S,8S,9S)-3-Acetylamino-9-methoxy-2,6,8-trimethyl-10-phenyl-deca-4,6-dienoyl)-pyrrolidine-2,4-dicarboxylic acid] as the molecule, how does the pIC50 read?
**A.** Its pIC50 is under 4.00.

**Q.** With `CO[C@@H](Cc1ccccc1)[C@@H](C)/C=C(C)/C=C/[C@H](NC(C)=O)[C@H](C)C(=O)N1[C@H](C(=O)O)CC[C@H]1C(=O)O` [(2S,5S)-1-((4E,6E)-(2S,3S,8S,9S)-3-Acetylamino-9-methoxy-2,6,8-trimethyl-10-phenyl-deca-4,6-dienoyl)-pyrrolidine-2,5-dicarboxylic acid] as the molecule, how does the pIC50 read?
**A.** Its pIC50 is under 4.30.

**Q.** With `COC(=O)[C@H]1CCCN1C(=O)[C@@H](C)[C@H](/C=C/C(C)=C/[C@H](C)[C@H](Cc1ccccc1)OC)NC(C)=O` [(R)-1-((4E,6E)-(2S,3S,8S,9S)-3-Acetylamino-9-methoxy-2,6,8-trimethyl-10-phenyl-deca-4,6-dienoyl)-pyrrolidine-2-carboxylic acid methyl ester] as the molecule, how does the pIC50 read?
**A.** The pIC50 was under 4.00.

**Q.** With `CO[C@@H](Cc1ccccc1)[C@@H](C)/C=C(C)/C=C/[C@H](NC(C)=O)[C@H](C)C(=O)N1CCC[C@@H]1C(=O)O` [(R)-1-((4E,6E)-(2S,3S,8S,9S)-3-Acetylamino-9-methoxy-2,6,8-trimethyl-10-phenyl-deca-4,6-dienoyl)-pyrrolidine-2-carboxylic acid] as the molecule, how does the pIC50 read?
**A.** The pIC50 was under 4.26.

**Q.** With `CC(=O)N[C@@H](/C=C/C(C)=C/CCCc1ccccc1)[C@H](C)C(=O)N[C@H](C)C(=O)O` [(R)-2-((4E,6E)-(2S,3S)-3-Acetylamino-2,6-dimethyl-10-phenyl-deca-4,6-dienoylamino)-propionic acid] as the molecule, how does the pIC50 read?
**A.** Its pIC50 is under 4.00.

**Q.** With `CC(=O)N[C@@H](/C=C/C(C)=C/c1ccc(-c2ccccc2)cc1)[C@H](C)C(=O)N[C@H](C)C(=O)O` [(R)-2-((4E,6E)-(2S,3S)-3-Acetylamino-7-biphenyl-4-yl-2,6-dimethyl-hepta-4,6-dienoylamino)-propionic acid] as the molecule, how does the pIC50 read?
**A.** Its pIC50 is under 4.00.

**Q.** With `CO[C@@H](Cc1ccccc1)[C@@H](C)/C=C(C)/C=C/[C@H](NC(C)=O)[C@H](C)C(=O)N[C@H](C)C(=O)O` [(R)-2-((4E,6E)-(2S,3S,8S,9S)-3-Acetylamino-9-methoxy-2,6,8-trimethyl-10-phenyl-deca-4,6-dienoylamino)-propionic acid] as the molecule, how does the pIC50 read?
**A.** Its pIC50 is 4.60.

**Q.** With `CC(=O)N[C@@H](/C=C/C(C)=C/c1ccccc1Cc1ccccc1)[C@H](C)C(=O)N[C@H](C)C(=O)O` [(R)-2-[(4E,6E)-(2S,3S)-3-Acetylamino-7-(2-benzyl-phenyl)-2,6-dimethyl-hepta-4,6-dienoylamino]-propionic acid] as the molecule, how does the pIC50 read?
**A.** The pIC50 was under 4.00.

**Q.** With `COC(=O)[C@@H]1CCCN1C(=O)[C@@H](C)[C@H](/C=C/C(C)=C/[C@H](C)[C@H](Cc1ccccc1)OC)NC(C)=O` [(S)-1-((4E,6E)-(2S,3S,8S,9S)-3-Acetylamino-9-methoxy-2,6,8-trimethyl-10-phenyl-deca-4,6-dienoyl)-pyrrolidine-2-carboxylic acid methyl ester] as the molecule, how does the pIC50 read?
**A.** The pIC50 was under 4.00.

**Q.** With `CO[C@@H](Cc1ccccc1)[C@@H](C)/C=C(C)/C=C/[C@H](NC(C)=O)[C@H](C)C(=O)N1CCC[C@H]1C(=O)O` [(S)-1-((4E,6E)-(2S,3S,8S,9S)-3-Acetylamino-9-methoxy-2,6,8-trimethyl-10-phenyl-deca-4,6-dienoyl)-pyrrolidine-2-carboxylic acid] as the molecule, how does the pIC50 read?
**A.** Its pIC50 is under 4.00.

**Q.** With `CO[C@@H](Cc1ccccc1)[C@@H](C)/C=C(C)/C=C/[C@H](NC(C)=O)[C@H](C)C(=O)N1CCCC1` [N-[(2E,4E)-(1S,6S,7S)-7-Methoxy-4,6-dimethyl-1-((S)-1-methyl-2-oxo-2-pyrrolidin-1-yl-ethyl)-8-phenyl-octa-2,4-dienyl]-acetamide] as the molecule, how does the pIC50 read?
**A.** The pIC50 was under 4.00.

**Q.** With `CO[C@@H](Cc1ccccc1)[C@@H](C)/C=C(C)/C=C/[C@H](NC(C)=O)[C@H](C)C(=O)N(CC(=O)O)CC(=O)O` [[((4E,6E)-(2S,3S,8S,9S)-3-Acetylamino-9-methoxy-2,6,8-trimethyl-10-phenyl-deca-4,6-dienoyl)-carboxymethyl-amino]-acetic acid] as the molecule, how does the pIC50 read?
**A.** The pIC50 was under 4.00.

Test: Inhibitory concentration against protein phosphatase 1 (PP1) using phosphorylase-a assay

**Q.** With `CO[C@@H](Cc1ccccc1)[C@@H](C)/C=C(C)/C=C/[C@H](NC(C)=O)[C@H](C)C(=O)NCC(=O)O` [((4E,6E)-(2S,3S,8S,9S)-3-Acetylamino-9-methoxy-2,6,8-trimethyl-10-phenyl-deca-4,6-dienoylamino)-acetic acid] as the molecule, how does the pIC50 read?
**A.** Its pIC50 is 5.25.

**Q.** With `CO[C@@H](Cc1ccccc1)[C@@H](C)/C=C(C)/C=C/[C@H](NC(C)=O)[C@H](C)C(=O)N[C@H](C)C(=O)O` [(R)-2-((4E,6E)-(2S,3S,8S,9S)-3-Acetylamino-9-methoxy-2,6,8-trimethyl-10-phenyl-deca-4,6-dienoylamino)-propionic acid] as the molecule, how does the pIC50 read?
**A.** The pIC50 was 6.00.

**Q.** With `CO[C@@H](Cc1ccccc1)[C@@H](C)/C=C(C)/C=C/[C@H](NC(C)=O)[C@H](C)C(=O)N[C@@H](C)C(=O)O` [(S)-2-((4E,6E)-(2S,3S,8S,9S)-3-Acetylamino-9-methoxy-2,6,8-trimethyl-10-phenyl-deca-4,6-dienoylamino)-propionic acid] as the molecule, how does the pIC50 read?
**A.** Its pIC50 is 3.77.
